In US20160263155A1, “T CELL RECEPTORS DIRECTED AGAINST THE PREFERENTIALLY EXPRESSED ANTIGEN OF MELANOMA AND USES THEREOF” (LEIDEN UNIVERSITY MEDICAL CENTER, priority 2015, published 2016):
“Also recorded” adds a separate entry of the source.

Columns and labels:
[1] = test system: CD3+ΔCD19+ cells (iCasp9+ T cells); assay: Phase I clinical trial of allodepleted T cells transduced with inducible caspase-9 suicide gene after haploidentical stem cell transplantation; type: in vivo, human
Excerpt: This example presents results of a phase 1 clinical trial using an alternative suicide gene strategy. Briefly, donor peripheral blood mononuclear cells were co-cultured with recipient irradiated EBV-transformed lymphoblastoid cells (40:1) for 72 hrs, allodepleted with a CD25 immunotoxin and then transduced with a retroviral supernatant carrying the iCasp9 suicide gene and a selection marker (ΔCD19); ΔCD19 allowed enrichment to >90% purity via immunomagnetic selection.
Patients developing grade 1 GvHD were treated with 0.4 mg/kg AP1903 as a 2-hour infusion. Protocols for administration of AP1903 to patients grade 1 GvHD were established as follows. Patients developing GvHD after infusion of allodepleted T cells are biopsied to confirm the diagnosis and receive 0.4 mg/kg of AP1903 as a 2 h infusion. […] Patients developing grades 2-4 GvHD were administered standard systemic immunosuppressive therapy per institutional guidelines, in addition to the AP1903 dimerizer drug.
Instructions for preparation and infusion: AP1903 for injection is obtained as a concentrated solution of 2.33 ml in a 3 ml vial, at a concentration of 5 mg/ml, (i.e., […] per vial). Prior to administration, the calculated dose was diluted to 100 mL in 0.9% normal saline for infusion. AP1903 for injection (0.4 mg/kg) in a volume of 100 ml was administered via IV infusion over 2 hours, using a non-DEHP, non-ethylene oxide sterilized infusion set and infusion pump.
Three patients received iCasp9^+ T cells after haplo-CD34^+ stem cell transplantation (SCT), at dose levels between about 1×10^6 to about 3×10^6 cells/kg.
Infused T cells were detected in vivo by flow cytometry (CD3^+ΔCD19^+) or qPCR as early as day 7 after infusion, with a maximum fold expansion of 170±5 (day 29±9 after infusion).

[2] = test system: inducible caspase-9 expressing T cells; assay: CASPALLO and DOTTI trials: AP1903 given to subjects treated with T cells containing the iCaspase-9 suicide switch; type: in vivo, human
Protocol: The DOTTI trial is a follow-up study to the CASPALLO trial. Three subjects subsequently developed Grade I & II acute GVHD and were treated with a single dose of the dimerizing drug AP1903. Four subjects are alive at a median of 476 days after transplant (range 278-674 days), and who had received AP1903.

[3] = test system: Cell A T cells (iCasp9 suicide gene); assay: Overnight culture of spleen and bone marrow cells from Cell A-treated animals with or without rimiducid; type: cell-based, NSG mouse; conditions: 10 nM rimiducid overnight; p<0.05
Protocol: A fraction of spleen and bone marrow cells were isolated from the Cell A-treated animals as analyzed above, and were cultured overnight with or without 10 nM rimiducid in order to determine the sensitivity of the suicide switch.

Cell A T cells (iCasp9) = assay: In vivo Cell A response to rimiducid in NSG mice (flow cytometry of spleens); parameters: species or system NSG mouse; conditions: 24 hours after rimiducid 5 mg/kg i.p.; 42±1.1% in untreated mice; p<0.0001
Protocol: 16 mice received an i.v. injection of 1×10^7 Cell A T cells on Day 0 as outlined above. Forty eight hours later, eight of the mice were injected i.p. with rimiducid at 5 mg/kg to evaluate activation of iCasp9 and apoptosis of the Cell A T cells; the other eight mice were left untreated. […] Thus, the iCasp9 encoded within Cell A represents a functioning safety switch that can be triggered in vivo to eliminate Cell A cells.

[4] = cited from earlier work
cells = assay: Amount of AP1903 needed in vitro for effective signaling of cells; type: cell-based
Protocol: The fixed dose of AP1903 for injection used, for example, may be 0.4 mg/kg intravenously infused over 2 hours. The amount of AP1903 needed in vitro for effective signaling of cells is about 10-100 nM (MW: 1412 Da). This equates to 14-140 μg/L or ˜0.014-0.14 mg/kg ([…]). The dosage may vary according to the application, and may, in certain examples, be more in the range of 0.1-10 nM, or in the range of 50-150 nM, 10-200 nM, 75-125 nM, 100-500 nM, 100-600 nM, 100-700 nM, 100-800 nM, or 100-900 nM. Doses up to 1 mg/kg were well-tolerated in the Phase I study of AP1903 described above.

[5] = test system: T cells transduced with the PRAME-TCR in combination with the iCasp9; assay: PRAME reactivity of T cells transduced with PRAME-TCR in combination with iCasp9 after AP1903 treatment; type: cell-based, human; conditions: 100 nM AP1903 for 18 h (overnight)
Protocol: The TCRAV and TCRBV gene usage of clone AAV54 (also called clone 54 or HSS1) was determined using reverse transcriptase (RT)-PCR and sequencing^5. […]
FIG. 12, Different retroviral vectors encoding for the PRAME-TCR were transduced into virus specific T cells and the reactivity is measured against target cells loaded with different concentrations of the PRAME peptide and against two melanoma cell-lines: FM6 positive for HLA-A2 and PRAME, and M13046/2 positive for HLA-A2 but negative for PRAME. […]
FIG. 15 Different retroviral vectors encoding for the PRAME-TCR were transduced into virus specific T cells and the reactivity was measured against target cells (T2 cells) loaded with PRAME peptide and two PRAME positive and HLA-A2 positive melanoma cell-lines: 518.A2 and FM6, and one PRAME negative but HLA-A2 positive melanoma cell line M13046/2. […]

Ewing sarcoma cell lines = assay: HLA-class I expression of Ewing sarcoma cell lines after interferon treatment; type: cell-based, human; conditions: 48 h, 300 IU/ml IFN-alpha or 100 IU/ml IFN-gamma
[6] = test system: neuroblastoma (NB) cell lines; assay: HLA-class I expression of neuroblastoma cell lines after interferon treatment; type: cell-based, human; conditions: 48 h, 300 IU/ml IFN-α or 100 IU/ml IFN-γ

Molecule	resolution of skin and liver aGvHD ([1]; after AP1903 administration) [h]	ablation of CD3+ΔCD19+ cells ([1]; within 30 minutes of infusion, two patients with grade I/II aGvHD, 0.4 mg/kg as 2-hour infusion) [%]	further reduction of CD3+ΔCD19+ cells ([1]; within 24 hours)	elimination of inducible caspase-9 expressing T cells ([2]; 30 minutes from the end of a 2 hour intravenous infusion, CASPALLO trial) [%]	adverse events associated with AP1903 ([2]; CASPALLO and DOTTI trials)	acute GVHD after administration of AP1903 ([2]; four subjects, CASPALLO trial)	fraction of Vβ1+ T cells recovered from spleen and bone marrow [3]	human T cells in spleen that were Vβ1+ (Cell A T cells (iCasp9)) [%]	well-tolerated doses ([4]; Phase I study)	adverse event considered possibly related to AP1903 ([4]; human, in vivo, 1 mg/kg)	AP1903 plasma levels versus dose ([4]; human, in vivo)	incidence of adverse events ([4]; human, in vivo)	serious adverse events ([4]; human, in vivo)	severity of adverse events ([4]; human, in vivo)	amount of AP1903 needed for effective signaling, converted to dose (cells) [mg/kg]	amount of AP1903 needed in vitro for effective signaling of cells (cells) [nM]	amount of AP1903 needed in vitro for effective signaling of cells, converted (cells; MW 1412 Da) [µg/L]	PRAME specific reactivity of T cells transduced with PRAME-TCR and iCasp9 after AP1903 [5]	HLA-class I expression on the cell surface (Ewing sarcoma cell lines)	HLA-class I expression on the cell surface [6]
CC[C@H](C(=O)N1CCCC[C@H]1C(=O)O[C@H](CCc1ccc(OC)c(OC)c1)c1cccc(OCC(=O)NCCNC(=O)COc2cccc([C@@H](CCc3ccc(OC)c(OC)c3)OC(=O)[C@@H]3CCCCN3C(=O)[C@@H](CC)c3cc(OC)c(OC)c(OC)c3)c2)c1)c1cc(OC)c(OC)c(OC)c1 (relative stereo) [AP1903, 2-Piperidinecarboxylic acid, 1-[(2S)-1-oxo-2-(3,4,5-trimethoxyphenyl)butyl]-, 1,2-ethanediylbis [imino(2-oxo-2,1-ethanediyl)oxy-3,1-phenylene[(1R)-3-(3,4-dimethoxyphenyl)propylidene]] ester, [2S-[1(R*),2R*[S*[S*[1(R*),2R*]]]]]-(9CI)]	≤ 24	> 90	further log reduction	≥ 90	No adverse events; also recorded: no immediate or delayed adverse events	rapidly abrogated	significantly reduced	7.3±0.2	up to 1 mg/kg	vasodilatation	directly proportional to dose	very low	No serious adverse events	mild	0.014 to 0.14	10 to 100	14 to 140	abrogated		
IFN-gamma: interferon used to treat tumor cell lines for 48 h (protein, UniProt P01579 24-161, looked up) Interferon gamma: QDPYVKEAENLKKYFNAGHSDVADNGTLFLGILKNWKEESDRKIMQSQIVSFYFKLFKNFKDDQSIQKSVETIKEDMNVKFFNSNKKKRDDFEKLTNYSVTDLNVQRKAIHELIQVMAELSPAAKTGKRKRSQMLFRG																			increased	increased
